The values that follow come from ChEMBL document CHEMBL1151285, “Dammarane triterpenes from the hypocotyls and fruits of Ceriops tagal” (J Nat Prod, 2005).

Broadly, the IC50 is the concentration that gives 50% inhibition. Higher therefore signals a need for much substance.

Holding throughout (type): functional, cell-based
One assay deals with KB. In words: Cytotoxicity against human KB cells by colorimetric assay.
Another assay relates to NCI-H187. In words: Cytotoxicity against human NCI-H187 cells by colorimetric assay.
The nature of assay [1]: Cytotoxicity against human BC cells by colorimetric assay.

In brackets after ≈: the same amount, converted by molar mass.

Regarding `C=C(C)[C@@H]1CC[C@]2(C(=O)O)CC[C@]3(C)[C@H](CC[C@@H]4[C@@]5(C)CC[C@H](OC(=O)/C=C/c6ccc(O)c(OC)c6)C(C)(C)[C@@H]5CC[C@]43C)[C@@H]12`, the IC50 in the assay with KB is 3.8 µg/mL (≈ 6 µM); in the assay with NCI-H187, 1.8 µg/mL (≈ 2.84 µM); in assay [1], 3 µg/mL (≈ 4.74 µM).

As to `Cc1c2ccncc2c(C)c2c1[nH]c1ccccc12` [ELLIPTECINE], the IC50 (in the assay with KB; in the assay with NCI-H187; in assay [1]) was 0.3 µg/mL (≈ 1.22 µM) in each case.
